Assay results reported in ChEMBL document CHEMBL3627616, “New multifunctional melatonin-derived benzylpyridinium bromides with potent cholinergic, antioxidant, and neuroprotective properties as innovative drugs for Alzheimer's disease” (Eur J Med Chem, 2015).
Active and inactive are the calls of the source. The rule behind the calls is not given here.

System: SH-SY5Y
Assay: Cytotoxicity against human SH-SY5Y cells assessed as cell survival at 1 to 50 uM after 24 hrs by MTT assay
Type: cell-based
Conditions: not given

SMILES	Activity
COc1ccc2[nH]cc(CCNC(=O)c3cc[n+](Cc4ccc(OC(=O)N(C)C)cc4)cc3)c2c1.[Br-]	Non-toxic
COc1ccc2[nH]cc(CCNC(=O)/C=C/c3cc[n+](Cc4cccc(F)c4)cc3)c2c1.[Br-]	Non-toxic

Organism: Homo sapiens
Assay: Selectivity ratio of IC50 for human serum BuChE to IC50 for human recombinant AChE
Conditions: not given

SMILES	Ratio IC50
COc1ccc2[nH]cc(CCNC(=O)c3cc[n+](Cc4ccc(OC(=O)N(C)C)cc4)cc3)c2c1.[Br-]	0.06
N#Cc1ccc(C[n+]2ccc(C(=O)NCCc3c[nH]c4ccccc34)cc2)cc1.[Br-]	> 4.4
COc1ccc2[nH]cc(CCNC(=O)/C=C/c3cc[n+](Cc4cccc(F)c4)cc3)c2c1.[Br-]	10
COc1ccc2[nH]cc(CCNC(=O)CCc3cc[n+](Cc4ccccc4F)cc3)c2c1.[Br-]	1.6
Cc1cccc(C[n+]2ccc(C(=O)NCCc3c[nH]c4ccccc34)cc2)c1.[Br-]	2.1
COc1ccc2[nH]cc(CCNC(=O)/C=C/c3cc[n+](Cc4ccccc4F)cc3)c2c1.[Br-]	8.8
O=C(NCCc1c[nH]c2ccccc12)c1cc[n+](Cc2ccccc2)cc1.[Br-]	0.67
COc1ccc2[nH]cc(CCNC(=O)CCc3cc[n+](Cc4cccc(F)c4)cc3)c2c1.[Br-]	1.6
COc1ccc2[nH]cc(CCNC(=O)c3cc[n+](Cc4cccc(F)c4)cc3)c2c1.[Br-]	2.1
COc1ccc2[nH]cc(CCNC(=O)CCc3cc[n+](Cc4ccc(F)cc4)cc3)c2c1.[Br-]	1.1
O=C(NCCc1c[nH]c2ccccc12)c1ccc[n+](Cc2ccccc2)c1.[Br-]	0.009
COc1ccc2[nH]cc(CCNC(=O)c3cc[n+](Cc4ccccc4F)cc3)c2c1.[Br-]	2.1
COc1ccc2[nH]cc(CCNC(=O)c3cc[n+](Cc4ccc(F)cc4)cc3)c2c1.[Br-]	1.5
Cc1ccc(C[n+]2ccc(C(=O)NCCc3c[nH]c4ccccc34)cc2)cc1.[Br-]	1.6
O=C(NCCc1c[nH]c2ccccc12)c1cc[n+](Cc2ccc(F)cc2)cc1.[Br-]	1.4
O=C(NCCc1c[nH]c2ccccc12)c1cc[n+](Cc2cccc(F)c2)cc1.[Br-]	1.3
O=C(NCCc1c[nH]c2ccccc12)c1ccc[n+](Cc2ccccc2F)c1.[Br-]	0.01
O=C(NCCc1c[nH]c2ccccc12)c1cc[n+](Cc2ccccc2F)cc1.[Br-]	1.3
COc1ccc2[nH]cc(CCNC(=O)/C=C/c3cc[n+](Cc4ccc(F)cc4)cc3)c2c1.[Br-]	3.4

Target: T1, Acetylcholinesterase (Homo sapiens, UniProt P22303)
T1 sequence (P22303 whole entry): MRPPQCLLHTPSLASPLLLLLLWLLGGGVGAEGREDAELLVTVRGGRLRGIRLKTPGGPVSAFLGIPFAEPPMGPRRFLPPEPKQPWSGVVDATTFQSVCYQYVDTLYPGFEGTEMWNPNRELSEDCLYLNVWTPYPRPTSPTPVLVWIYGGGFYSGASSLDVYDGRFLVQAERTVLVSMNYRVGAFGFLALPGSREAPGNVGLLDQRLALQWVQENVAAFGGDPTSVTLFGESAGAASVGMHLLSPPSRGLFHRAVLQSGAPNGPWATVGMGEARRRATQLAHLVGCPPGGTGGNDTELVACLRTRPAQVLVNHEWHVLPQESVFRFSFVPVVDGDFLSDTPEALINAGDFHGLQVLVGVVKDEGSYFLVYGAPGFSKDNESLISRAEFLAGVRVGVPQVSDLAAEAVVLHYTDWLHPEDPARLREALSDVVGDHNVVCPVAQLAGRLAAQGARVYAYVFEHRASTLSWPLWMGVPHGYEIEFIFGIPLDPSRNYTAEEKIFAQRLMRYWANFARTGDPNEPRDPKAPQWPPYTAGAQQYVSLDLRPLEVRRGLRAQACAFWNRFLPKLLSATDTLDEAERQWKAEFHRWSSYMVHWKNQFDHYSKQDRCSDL
Assay: Potency index, ratio of IC50 for donepezil to IC50 for test compound for inhibition of human recombinant AChE
Conditions: not given

SMILES	Ratio IC50
COc1ccc2[nH]cc(CCNC(=O)c3cc[n+](Cc4ccc(OC(=O)N(C)C)cc4)cc3)c2c1.[Br-]	70

Target: T1, Acetylcholinesterase
Conditions: 0.05 to 0.2 uM

SMILES	inhibition
COc1ccc2[nH]cc(CCNC(=O)/C=C/c3cc[n+](Cc4cccc(F)c4)cc3)c2c1.[Br-]	Active

System: not listed separately
Assay: Antioxidant activity assessed as trolox equivalent of AAPH radical scavenging activity preincubated for 15 mins followed by addition of AAPH solution measured for 80 mins by ORAC-FL method
Type: physicochemical
Conditions: not given

SMILES	Activity
COc1ccc2[nH]cc(CCNC(=O)c3cc[n+](Cc4ccc(OC(=O)N(C)C)cc4)cc3)c2c1.[Br-]	2.04 umolequiv/umol
N#Cc1ccc(C[n+]2ccc(C(=O)NCCc3c[nH]c4ccccc34)cc2)cc1.[Br-]	1.56 umolequiv/umol
COc1ccc2[nH]cc(CCNC(=O)/C=C/c3cc[n+](Cc4cccc(F)c4)cc3)c2c1.[Br-]	3.41 umolequiv/umol
COc1ccc2[nH]cc(CCNC(=O)CCc3cc[n+](Cc4ccccc4F)cc3)c2c1.[Br-]	2.51 umolequiv/umol
Cc1cccc(C[n+]2ccc(C(=O)NCCc3c[nH]c4ccccc34)cc2)c1.[Br-]	1.36 umolequiv/umol
COc1ccc2[nH]cc(CCNC(=O)/C=C/c3cc[n+](Cc4ccccc4F)cc3)c2c1.[Br-]	3.66 umolequiv/umol
O=C(NCCc1c[nH]c2ccccc12)c1cc[n+](Cc2ccccc2)cc1.[Br-]	1.29 umolequiv/umol
COc1ccc2[nH]cc(CCNC(=O)CCc3cc[n+](Cc4cccc(F)c4)cc3)c2c1.[Br-]	2.45 umolequiv/umol
COc1ccc2[nH]cc(CCNC(=O)c3cc[n+](Cc4cccc(F)c4)cc3)c2c1.[Br-]	1.87 umolequiv/umol
COc1ccc2[nH]cc(CCNC(=O)CCc3cc[n+](Cc4ccc(F)cc4)cc3)c2c1.[Br-]	2.49 umolequiv/umol
O=C(NCCc1c[nH]c2ccccc12)c1ccc[n+](Cc2ccccc2)c1.[Br-]	1.49 umolequiv/umol
COc1ccc2[nH]cc(CCNC(=O)c3cc[n+](Cc4ccccc4F)cc3)c2c1.[Br-]	2.02 umolequiv/umol
COc1ccc2[nH]cc(CCNC(=O)c3cc[n+](Cc4ccc(F)cc4)cc3)c2c1.[Br-]	2.09 umolequiv/umol
Cc1ccc(C[n+]2ccc(C(=O)NCCc3c[nH]c4ccccc34)cc2)cc1.[Br-]	1.72 umolequiv/umol
O=C(NCCc1c[nH]c2ccccc12)c1cc[n+](Cc2ccc(F)cc2)cc1.[Br-]	1.32 umolequiv/umol
COc1ccc2[nH]cc(CCNC(C)=O)c2c1 [MELATONIN]	2.34 umolequiv/umol
O=C(NCCc1c[nH]c2ccccc12)c1cc[n+](Cc2cccc(F)c2)cc1.[Br-]	1.41 umolequiv/umol
O=C(NCCc1c[nH]c2ccccc12)c1ccc[n+](Cc2ccccc2F)c1.[Br-]	1.47 umolequiv/umol
O=C(NCCc1c[nH]c2ccccc12)c1cc[n+](Cc2ccccc2F)cc1.[Br-]	1.14 umolequiv/umol
COc1ccc2[nH]cc(CCNC(=O)/C=C/c3cc[n+](Cc4ccc(F)cc4)cc3)c2c1.[Br-]	3.51 umolequiv/umol

System: SH-SY5Y
Assay: Neuroprotective activity against H2O2-induced oxidative stress-associated death in human SH-SY5Y cells assessed as increase in cell viability at 1 to 10 uM incubated for 24 hrs prior to H2O2 challenge measured after 24 hrs by MTT assay
Type: functional, cell-based
Conditions: not given

SMILES	Activity
COc1ccc2[nH]cc(CCNC(=O)c3cc[n+](Cc4ccc(OC(=O)N(C)C)cc4)cc3)c2c1.[Br-]	Active
COc1ccc2[nH]cc(CCNC(=O)/C=C/c3cc[n+](Cc4cccc(F)c4)cc3)c2c1.[Br-]	Active

Target: T1, Acetylcholinesterase
Assay: Inhibition of human recombinant AChE using acetylthiocholine iodide as substrate preincubated for 5 mins followed by substrate addition by Ellman's method
Conditions: not given

SMILES	IC50
COc1ccc2[nH]cc(CCNC(=O)c3cc[n+](Cc4ccc(OC(=O)N(C)C)cc4)cc3)c2c1.[Br-]	1.3 µM
N#Cc1ccc(C[n+]2ccc(C(=O)NCCc3c[nH]c4ccccc34)cc2)cc1.[Br-]	22.9 µM
COc1ccc2[nH]cc(CCNC(=O)/C=C/c3cc[n+](Cc4cccc(F)c4)cc3)c2c1.[Br-]	0.11 µM
COc1ccc2[nH]cc(CCNC(=O)CCc3cc[n+](Cc4ccccc4F)cc3)c2c1.[Br-]	0.53 µM
Cc1cccc(C[n+]2ccc(C(=O)NCCc3c[nH]c4ccccc34)cc2)c1.[Br-]	2.7 µM
COc1ccc2[nH]cc(CCNC(=O)/C=C/c3cc[n+](Cc4ccccc4F)cc3)c2c1.[Br-]	0.26 µM
O=C(NCCc1c[nH]c2ccccc12)c1cc[n+](Cc2ccccc2)cc1.[Br-]	4.2 µM
COc1ccc2[nH]cc(CCNC(=O)CCc3cc[n+](Cc4cccc(F)c4)cc3)c2c1.[Br-]	0.44 µM
COc1ccc2[nH]cc(CCNC(=O)c3cc[n+](Cc4cccc(F)c4)cc3)c2c1.[Br-]	3.8 µM
COc1ccc2[nH]cc(CCNC(=O)CCc3cc[n+](Cc4ccc(F)cc4)cc3)c2c1.[Br-]	0.58 µM
O=C(NCCc1c[nH]c2ccccc12)c1ccc[n+](Cc2ccccc2)c1.[Br-]	30.5 µM
COc1ccc2[nH]cc(CCNC(=O)c3cc[n+](Cc4ccccc4F)cc3)c2c1.[Br-]	3.3 µM
COc1ccc2[nH]cc(CCNC(=O)c3cc[n+](Cc4ccc(F)cc4)cc3)c2c1.[Br-]	5.1 µM
Cc1ccc(C[n+]2ccc(C(=O)NCCc3c[nH]c4ccccc34)cc2)cc1.[Br-]	5.7 µM
O=C(NCCc1c[nH]c2ccccc12)c1cc[n+](Cc2ccc(F)cc2)cc1.[Br-]	3.4 µM
O=C(NCCc1c[nH]c2ccccc12)c1cc[n+](Cc2cccc(F)c2)cc1.[Br-]	3.9 µM
O=C(NCCc1c[nH]c2ccccc12)c1ccc[n+](Cc2ccccc2F)c1.[Br-]	28.6 µM
O=C(NCCc1c[nH]c2ccccc12)c1cc[n+](Cc2ccccc2F)cc1.[Br-]	3.2 µM
COc1ccc2[nH]cc(CCNC(=O)/C=C/c3cc[n+](Cc4ccc(F)cc4)cc3)c2c1.[Br-]	0.21 µM

System: not listed separately
Assay: Antioxidant activity assessed as trolox equivalent of AAPH radical scavenging activity
Type: physicochemical
Conditions: not given

SMILES	Activity
COc1ccc2[nH]cc(CCNC(C)=O)c2c1 [MELATONIN]	2 umolequiv/umol

System: SH-SY5Y
Assay: Neuroprotective activity against H2O2-induced oxidative stress-associated death in human SH-SY5Y cells assessed as increase in cell viability at 10 uM incubated for 24 hrs prior to H2O2 challenge measured after 24 hrs by MTT assay
Type: functional, cell-based
Conditions: not given

SMILES	Activity
COc1ccc2[nH]cc(CCNC(C)=O)c2c1 [MELATONIN]	Active

Target: Cholinesterase (Homo sapiens, UniProt P06276)
Sequence (P06276 whole entry): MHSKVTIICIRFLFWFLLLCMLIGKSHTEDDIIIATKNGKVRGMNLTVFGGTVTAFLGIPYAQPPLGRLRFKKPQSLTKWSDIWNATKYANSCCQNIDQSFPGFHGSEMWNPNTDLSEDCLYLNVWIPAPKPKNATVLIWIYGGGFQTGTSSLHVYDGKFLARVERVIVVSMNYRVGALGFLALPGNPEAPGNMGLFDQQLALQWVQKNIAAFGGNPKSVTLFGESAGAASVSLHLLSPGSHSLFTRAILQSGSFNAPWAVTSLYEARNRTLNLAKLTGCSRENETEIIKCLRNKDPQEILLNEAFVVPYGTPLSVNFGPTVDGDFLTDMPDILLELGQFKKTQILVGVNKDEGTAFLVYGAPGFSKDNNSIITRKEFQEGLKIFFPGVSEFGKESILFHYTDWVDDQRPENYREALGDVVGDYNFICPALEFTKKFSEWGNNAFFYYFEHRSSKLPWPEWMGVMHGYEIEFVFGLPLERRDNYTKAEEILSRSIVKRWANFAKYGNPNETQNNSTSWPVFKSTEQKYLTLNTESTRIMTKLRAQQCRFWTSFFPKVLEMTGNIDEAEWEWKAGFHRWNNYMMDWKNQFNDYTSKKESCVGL
Conditions: not given

SMILES	IC50
COc1ccc2[nH]cc(CCNC(=O)c3cc[n+](Cc4ccc(OC(=O)N(C)C)cc4)cc3)c2c1.[Br-]	80 nM
COc1ccc2[nH]cc(CCNC(=O)/C=C/c3cc[n+](Cc4cccc(F)c4)cc3)c2c1.[Br-]	1100 nM
COc1ccc2[nH]cc(CCNC(=O)CCc3cc[n+](Cc4ccccc4F)cc3)c2c1.[Br-]	860 nM
Cc1cccc(C[n+]2ccc(C(=O)NCCc3c[nH]c4ccccc34)cc2)c1.[Br-]	5800 nM
COc1ccc2[nH]cc(CCNC(=O)/C=C/c3cc[n+](Cc4ccccc4F)cc3)c2c1.[Br-]	2300 nM
O=C(NCCc1c[nH]c2ccccc12)c1cc[n+](Cc2ccccc2)cc1.[Br-]	2800 nM
COc1ccc2[nH]cc(CCNC(=O)CCc3cc[n+](Cc4cccc(F)c4)cc3)c2c1.[Br-]	720 nM
COc1ccc2[nH]cc(CCNC(=O)c3cc[n+](Cc4cccc(F)c4)cc3)c2c1.[Br-]	7900 nM
COc1ccc2[nH]cc(CCNC(=O)CCc3cc[n+](Cc4ccc(F)cc4)cc3)c2c1.[Br-]	650 nM
O=C(NCCc1c[nH]c2ccccc12)c1ccc[n+](Cc2ccccc2)c1.[Br-]	280 nM
COc1ccc2[nH]cc(CCNC(=O)c3cc[n+](Cc4ccccc4F)cc3)c2c1.[Br-]	6800 nM
COc1ccc2[nH]cc(CCNC(=O)c3cc[n+](Cc4ccc(F)cc4)cc3)c2c1.[Br-]	7500 nM
Cc1ccc(C[n+]2ccc(C(=O)NCCc3c[nH]c4ccccc34)cc2)cc1.[Br-]	8900 nM
O=C(NCCc1c[nH]c2ccccc12)c1cc[n+](Cc2ccc(F)cc2)cc1.[Br-]	4800 nM
O=C(NCCc1c[nH]c2ccccc12)c1cc[n+](Cc2cccc(F)c2)cc1.[Br-]	5100 nM
O=C(NCCc1c[nH]c2ccccc12)c1ccc[n+](Cc2ccccc2F)c1.[Br-]	340 nM
O=C(NCCc1c[nH]c2ccccc12)c1cc[n+](Cc2ccccc2F)cc1.[Br-]	4100 nM
COc1ccc2[nH]cc(CCNC(=O)/C=C/c3cc[n+](Cc4ccc(F)cc4)cc3)c2c1.[Br-]	710 nM
